We go through four molecules from patent US20080255106A1, “Novel 2-Phenyl-Imidazo[4,5-B]Pyridine Derivatives as Inhibitors of Glycogen Synthase Kinase for the Treatment of Dementia and Neurodegenerative Disorders” (AstraZeneca AB, priority 2005, published 2008).

Structures are written as SMILES. Counter-ions that a name gives are not always drawn.

T1 sequence (P49841 whole entry): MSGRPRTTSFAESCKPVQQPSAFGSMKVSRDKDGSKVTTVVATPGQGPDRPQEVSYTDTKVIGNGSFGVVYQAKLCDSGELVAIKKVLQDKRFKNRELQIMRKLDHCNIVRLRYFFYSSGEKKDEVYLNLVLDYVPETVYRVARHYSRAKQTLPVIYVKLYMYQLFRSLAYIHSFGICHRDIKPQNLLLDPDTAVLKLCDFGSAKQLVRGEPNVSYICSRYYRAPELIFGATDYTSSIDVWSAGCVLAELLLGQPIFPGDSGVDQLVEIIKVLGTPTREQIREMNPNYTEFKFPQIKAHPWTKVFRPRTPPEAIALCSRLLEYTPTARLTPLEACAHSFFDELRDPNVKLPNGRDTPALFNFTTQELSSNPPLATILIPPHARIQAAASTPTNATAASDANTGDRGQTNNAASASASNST

The experiment has as its target T1, GSK3β (Homo sapiens, UniProt P49841).
T1 construct: purchased Dundee University, UK
The experiment is described as follows: GSK3β Scintillation Proximity Assay (ATP competition). The class given is biochemical. Particulars: recombinant human GSK3β, SPA, 1 μM ATP, Km of ATP 20 μM used to calculate Ki. As for the experimental part:
Determination of ATP Competition in Scintillation Proximity GSK3β Assay.
GSK3β Scintillation Proximity Assay.
The competition experiments were carried out in duplicate with 10 different concentrations of the inhibitors in clear-bottom microtiter plates (Wallac, Finland). A biotinylated peptide substrate, Biotin-Ala-Ala-Glu-Glu-Leu-Asp-Ser-Arg-Ala-Gly-Ser(PO3H2)-Pro-Gln-Leu (AstraZeneca, Lund), was added at a final concentration of 1 μM in an assay buffer containing 1 mU recombinant human GSK30 (Dundee University, UK), 12 mM morpholinepropanesulfonic acid (MOPS), pH 7.0, 0.3 mM EDTA, 0.01% β-mercaptoethanol, 0.004% Brij 35 (a […] detergent), 0.5% glycerol and 0.5 μg BSA/25 μl. The reaction was initiated by the addition of 0.04 μCi [γ-^33P]ATP (Amersham, UK) and unlabelled ATP at a final concentration of 1 μM and assay volume of 25 μl. After incubation for 20 minutes at room temperature, each reaction was terminated by the addition of 25 μl stop solution containing 5 mM EDTA, 50 μM ATP, 0.1% Triton X-100 and 0.25 mg streptavidin coated Scintillation Proximity Assay (SPA) beads (Amersham, UK). After 6 hours the radioactivity was determined in a liquid scintillation counter (1450 MicroBeta Trilux, Wallac). The inhibition curves were analysed by non-linear regression using GraphPad Prism, USA. The Km value of ATP for GSK3, used to calculate the inhibition constants (Ki) of the various compounds, was 20 μM.
By Ki is commonly meant a dissociation constant, usually derived from enzyme kinetics or from competition with a known ligand. Take `COCCCNC(=O)c1ccnc2[nH]c(-c3ccc(C(F)(F)F)cc3)nc12` [Example 3, N-(3-Methoxypropyl)-2-[4-(trifluoromethyl)phenyl]-3H-imidazo[4,5-b]pyridine-7-carboxamide hydrochloride]: the Ki was 17 nM. Turning to `COCCCNC(=O)c1ccnc2[nH]c(-c3cccc(COCC(F)(F)C(F)F)c3)nc12` [Example 4, N-(3-Methoxypropyl)-2-{3-[(2,2,3,3-tetrafluoropropoxy)methyl]phenyl}-3H-imidazo[4,5-b]pyridine-7-carboxamide hydrochloride], the Ki was 8 nM. For `COCCCNC(=O)c1ccnc2[nH]c(-c3ccc(C(=O)N4CCN(C)CC4)cc3)nc12` [Example 6, N-(3-Methoxypropyl)-2-{4-[(4-methylpiperazin-1-yl)carbonyl]phenyl}-3H-imidazo[4,5-b]pyridine-7-carboxamide hydrochloride], the Ki is 51 nM. Regarding `COCCCNC(=O)c1ccnc2[nH]c(-c3ccc(C(=O)N4CCOCC4)cc3)nc12` [Example 7, N-(3-Methoxypropyl)-2-[4-(morpholin-4-ylcarbonyl)phenyl]-3H-imidazo[4,5-b]pyridine-7-carboxamide hydrochloride], the Ki is 36 nM.
